≈ marks a conversion by molar mass, not a printed value.
Experiments:
[1] = test system: plant pathogenic fungi; test: In vitro fungicidal activity spectrum over the pathogens tested; type: cell-based
Method: The following pathogens were used:
(§1) Each of the above mentioned 9 pathogens were separately innoculated into 100 ml of potato dextrose (PD) bouillon and shaken at 200 rpm at 25° C. for 7 days. The mycelium was harvested and homogenized for about 10 seconds in a Warring blender and 1-5 ml of the blended mycelium was transferred to petri dishes with a diameter of 14 cm. […] 20 ml of potato dextrose agar (PDA) having a temperature of 45° C. were poured into each of the petri dishes and thorougly mixed with the blended mycelium present therein. When the agar had solidified, wells of a diameter of 4 mm were punched in the agar, and 15 μl of test solutions containing varicus concentrations of compound Ia, Ib and IIa dissolved in ethanol was applied to each well. The plates were incubated for three days at 25° C. and the inhibition zones measured (in mm).
(§2) The experiments were repeated and in the second run, Bc plates were made from Bc spores (the plates were termed Bc2) as such plates may result in a more uniform growth.

[2] = test system: Botrytis cinerea; test: Fungicidal activity in vivo against Botrytis cinerea on sprayed plants; details: spray to run off, assessed after 6 days
Method: Activity of the compounds Ia and Ib against Botrytis cinerea Host: Lycopersicon esculentum (tomato, var. First in Field) […] plants (5 weeks old) were sprayed to run off with liquid solutions using a handhold sprayer (Bink Bullows 900). The solution (70% EtOH) had different concentrations of the compounds Ia and Ib. The plants were kept 24 hours in a green house to dry before they were inoculated with a spore suspension containing 1×10^5 spores/ml in 25% grape juice. The inoculation was carried out with a handhold atomizer (Wagner, Pico Bel). The plants were then incubated (16 hours light (1000 lux) and 8 hours dark) at 15°-20° C. in clear polyethylene bags to raise the relative humidity to 95-100%. After 6 days the assessment was done.

[3] = test system: Botrytis cinerea; test: Agar well inhibition zone, Botrytis cinerea, mycelium plates (Bc1); type: cell-based; design: key to inhibition zone Bc1: clear; diffuse; very diffuse; +: very weak; details: 15 μl per well, 3 days at 25° C.
Method: (§3) Botrytis cinerea (Bc) grey mould
as §1, with “mm). […]” for “mm).”

[4] = test system: Alternaria alternata; test: Agar well inhibition zone, Alternaria alternata (Aa); type: cell-based; details: Alternaria alternata, 72 h, 15 μl per well, 3 days at 25° C.
Method: Alternaria alternata (Aa) black mould coverings, leaf spot
as §1, §2

[5] = test system: Phoma lingam; test: Agar well inhibition zone, Phoma lingam (Pl); type: cell-based; details: Plenodomus lingam, 72 h, 15 μl per well, 3 days at 25° C., read-out: inhibition zone P1
Method: Phoma lingam (Pl) canker and dry rot
as §1, with “mm). […]” for “mm).”

[6] = test system: mouse peritoneal macrophage; test: Mouse peritoneal macrophage assay, cellular ATP (viability); type: cell-based
[7] = test system: Ascochyta pisi; test: Agar well inhibition zone, Ascochyta pisi (Ap); type: cell-based; details: Ascochyta pisi, 72 h, 15 μl per well, 3 days at 25° C.
Method: Ascochyta pisi (Ap) leaf, stem and pod rot
as §1, with “mm). […]” for “mm).”

[8] = test system: Sclerotinia sclerotiorum; test: Agar well inhibition zone, Sclerotinia sclerotiorum (Ss); type: cell-based; details: Sclerotinia sclerotiorum, 72 h, 15 μl per well, 3 days at 25° C.
Method: Sclerotinia sclerotiorum (Ss) white mould disease, stem rot
as §1, with “mm). […]” for “mm).”

[9] = test system: Monilinia fructigena; test: Agar well inhibition zone, Monilinia fructigena (Mf); type: cell-based; details: Monilinia fructigena, 72 h, 15 μl per well, 3 days at 25° C.
Method: Monilinia fructigena (Mf) brown rot, fruit rot
as §1, with “mm). […]” for “mm).”

[10] = test system: Pyrenophora teres; test: Agar well inhibition zone, Pyrenophora teres (Pt); type: cell-based; design: key to inhibition zone Pt: clear; diffuse; very diffuse; +: very weak; details: 15 μl per well, 3 days at 25° C.
Method: Pyrenophora teres (Pt) net blotch disease
as §1, with “mm). […]” for “mm).”

[11] = test system: mouse peritoneal macrophage; test: Mouse peritoneal macrophage assay, chemiluminescence (phagocytosis); type: cell-based
[12] = test system: Botrytis cinerea; test: Agar well inhibition zone, Botrytis cinerea, plates made from spores (Bc2); type: cell-based
Method: as §3, §1, §2

[13] = test system: Phoma betae; test: Agar well inhibition zone, Phoma betae (Pb); type: cell-based; details: Neocamarosporium betae, 72 h, 15 μl per well, 3 days at 25° C.
Method: Phoma betae (Pb) seedling black rot, black leg
as §1, with “mm). […]” for “mm).”

Compound: C[C@@H]1Cc2cc(O)cc(O)c2C(=O)O[C@H](C)CC(=O)O[C@H](CO)CC(=O)O[C@H](C)Cc2cc(O)cc(O)c2C(=O)O[C@H](C)CC(=O)O1 [Compound Ia]
- activity spectrum ([1]; all pathogens tested, Table 2): more effective than the compound of formula IIa
- number of pathogens against which compound was active ([1]; with respect to Bc only for the plate containing spores): 5 pathogens
- protection ([2]; 37 ppm): approx. 10%
- protection ([2]; 375 ppm): approx. 60%
- protection ([2]; 1000 ppm): approx. 60%
- inhibition zone Bc1 ([3]; 0.05 mg/ml): +
- inhibition zone Bc1 ([3]; 0.5 mg/ml): +
- inhibition zone Bc1 ([3]; 1.0 mg/ml): +
- zone of inhibition at 10 µg/mL ([3]; Botrytis cinerea, 72 h, 0.01 mg/ml): 0 mm
- zone of inhibition at 10 µg/mL ([4]; 0.01 mg/ml): 0 mm
- zone of inhibition at 50 µg/mL ([4]; 0.05 mg/ml): 0 mm
- zone of inhibition at 500 µg/mL ([4]; 0.5 mg/ml): 0 mm
- zone of inhibition at 1000 µg/mL ([4]; 1.0 mg/ml): 0 mm
- zone of inhibition at 10 µg/mL ([5]; 0.01 mg/ml): 0 mm
- zone of inhibition at 50 µg/mL ([5]; 0.05 mg/ml): 18 mm
- zone of inhibition at 500 µg/mL ([5]; 0.5 mg/ml): 42 mm
- zone of inhibition at 1000 µg/mL ([5]; 1.0 mg/ml): 49 mm
- IC50 [6]: 2.5 µg/mL (≈ 3.77 µM)
- zone of inhibition at 10 µg/mL ([7]; 0.01 mg/ml): 0 mm
- zone of inhibition at 50 µg/mL ([7]; 0.05 mg/ml): 0 mm
- zone of inhibition at 500 µg/mL ([7]; 0.5 mg/ml): 0 mm
- zone of inhibition at 1000 µg/mL ([7]; 1.0 mg/ml): 0 mm
- zone of inhibition at 10 µg/mL ([8]; 0.01 mg/ml): 0 mm
- zone of inhibition at 50 µg/mL ([8]; 0.05 mg/ml): 24 mm
- zone of inhibition at 500 µg/mL ([8]; 0.5 mg/ml): 42 mm
- zone of inhibition at 1000 µg/mL ([8]; 1.0 mg/ml): 50 mm
- zone of inhibition at 10 µg/mL ([9]; 0.01 mg/ml): 20 mm
- zone of inhibition at 50 µg/mL ([9]; 0.05 mg/ml): 34 mm
- zone of inhibition at 500 µg/mL ([9]; 0.5 mg/ml): 45 mm
- zone of inhibition at 1000 µg/mL ([9]; 1.0 mg/ml): 50 mm
- inhibition zone Pt ([10]; 0.05 mg/ml): +
- zone of inhibition at 10 µg/mL ([10]; Pyrenophora teres, 72 h, 0.01 mg/ml): 0 mm
- zone of inhibition at 500 µg/mL ([10]; Pyrenophora teres, 72 h, 0.5 mg/ml): 35 mm
- zone of inhibition at 1000 µg/mL ([10]; Pyrenophora teres, 72 h, 1.0 mg/ml): 40 mm
- IC50 [11]: 2 µg/mL (≈ 3.02 µM)
- appearance of Bc zones ([12]; Bc plates): very diffuse
- time of incubation after which Bc zones could be seen ([12]; Bc plates): ≥ 3 days
- zone of inhibition at 50 µg/mL ([12]; Botrytis cinerea, 72 h, 0.05 mg/ml, 15 μl per well, 3 days at 25° C., plates from spores): 12 mm
- zone of inhibition at 500 µg/mL ([12]; Botrytis cinerea, 72 h, 0.5 mg/ml, 15 μl per well, 3 days at 25° C., plates from spores): 48 mm
- zone of inhibition at 1000 µg/mL ([12]; Botrytis cinerea, 72 h, 1.0 mg/ml, 15 μl per well, 3 days at 25° C., plates from spores): 56 mm
- zone of inhibition at 10 µg/mL ([13]; 0.01 mg/ml): 0 mm
- zone of inhibition at 50 µg/mL ([13]; 0.05 mg/ml): 0 mm
- zone of inhibition at 500 µg/mL ([13]; 0.5 mg/ml): 0 mm
- zone of inhibition at 1000 µg/mL ([13]; 1.0 mg/ml): 0 mm

Reference: patent publication US5641804A, “Fungicidal compound comprising a cyclic polylactone” (Novo Nordisk A/S, priority 1992, dated 1997)
